According to PubChem BioAssay AID602239 (National Center for Advancing Translational Sciences (NCATS), 2012):

Tested on: mouse liver microsomes with NADPH, LC-MS/MS
Assay: qHTS for Activators of Human alpha-Glucosidase as a Potential Chaperone Treatment of Pompe Disease: Metabolic Stability in presence of NADPH
Conditions: at 5 µM; active compounds read high (more stable);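 active means compound with at least 90% left intact after incubation with mouse liver microsomes and NADPH; inactive means the rest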
Text: Alpha-glucosidase is responsible for hydrolysis of terminal, non-reducing 1,4-linked alpha-D-glucose residues with release of alpha-D-glucose. It is a lysosomal hydrolase that is required for the degradation of a small percentage (1-3%) of cellular glycogen in human. Deficiency of this enzyme results in glycogen-storage disease type II (GSDII), also referred to as Pompe disease, an autosomal recessive disorder. Structurally normal glycogen is accumulated in lysosomes and cytoplasm in affected patients, primarily in muscle tissues. Excessive glycogen storage within lysosomes may interrupt normal functioning of other organelles and leads to cellular injury. In turn, this leads to enlargement and dysfunction of the entire organ involved (eg, cardiomyopathy and muscle weakness). It has reported that the improper folding and trafficking of alpha-glucosidase resulting from the genetic mutations may account for a significant number of Pompe patients. […] We optimized this alpha-glucosidase assay in 1536-well plate format for identifying the novel small molecule inhibitors with the structures other than the sugar analogs in order to develop the new pharmacological chaperones. Mouse liver microsomes are created through broken up endoplasmic reticulum from mouse liver. These liver microsomes contain many drug metabolizing enzymes, such as Cytochome P-450s and flavin-containing monooxygenases. […] NIH Chemical Genomics Center [NCGC] NIH Molecular Libraries Probe Production Centers Network [MLPCN] MLPCN Grant: MH084841 Assay Submitter (PI): Wei Zheng
5uM of compound is incubated with mouse liver microsome; the reference compounds are verapamil and warfarin. Compounds are incubated and samples are analyzed with LC-MS/MS.

Percent remaining (higher = more stable), inactive:
CCCN1CNc2c(c(=O)[nH]c(=S)n2CCc2cccc(Cl)c2Cl)C1 2%
CCCN1CNc2c(c(=O)[nH]c(=S)n2Cc2ccc(OC)c(OC)c2)C1 63%
CCCN1CNc2c(c(=O)[nH]c(=S)n2CCc2ccc(OC)c(OC)c2)C1 4%
